Experimental data published in patent publication US20240336653A1, “PEPTIDE COMPOUND TARGETING ELASTIN-DERIVED PEPTIDES AND USE THEREOF” (Shenzhen Turier Biotech Co., Ltd., priority 2020, published 2024).
*1 amine or outer side, *2 acyl side, *3 side chain or, on linkers, in order; H or OH if unused. Primed or numbered codes have the meaning given here. Where no end group is shown, it is not given here. [ ]: non-standard residue; d: D form. The star is where a group is joined. C20 diacid = O=C(O)CCCCCCCCCCCCCCCCCCC(=O)*; γGlu = O=C(O)[C@H](CCC(=O)[*:2])N[*:1]; Iva = CC[C@](C)(N)C(=O)O; PEG2′ = not defined here

Assays:
LX2 cells = assay: Activity evaluation in LX2 cell model (α-SMA protein expression); assay type: cell-based, human; details: 1.0 μM and 10.0 μM, 48 hours incubation, GAPDH internal reference, FIG. 1
Text: In LX2 cell model (which can be directly used as the evaluation model of hepatic fibrosis cells in vitro, because LX2 cells are human liver activated stellate cells. The LX2 cells are purchased from China Center for Type Culture Collection of the Chinese Academy of Sciences, Shanghai, China), the anti-fibrosis activities of peptide compounds 1-25 are preliminarily screened, and the expression of the marker α-SMA protein of myofibroblast activation is detected. The peptide compounds 1-25 is subjected to cell incubation for 48 hours by using two concentrations (1.0 μM and 10.0 μM). The control group is given the same volume of Dulbecco's modified Eagle medium (DMEM) (purchased from Gibco in the United States), and GAPDH (purchased from TransGen Biotech) as the internal reference, α-actin (α-SMA) is a symbolic feature that distinguishes myoblast cells from myofibroblasts.

[1] = test system: bleomycin induced pulmonary fibrosis; assay: Bleomycin (BLM) induced pulmonary fibrosis model in mice; assay type: in vivo, C57BL/6J mice; details: 150 μg/kg daily intraperitoneal, 14 days, FIG. 5; for degree of pulmonary fibrosis (H&E staining and Masson staining): compared with bleomycin control group; for fibronectin in pulmonary parenchyma (α-SMA and Collagen1 immunohistochemistry): compared with bleomycin group
Method: (§1) Molding method: 78 male C57BL/6J mice, 16-18 g in weight and 6-8 weeks old, provided by Laboratory Animal Center, Sun Yat-sen University, randomly divided into 13 groups: 1) normal control group (Normal), n=6; 2) sham-operated saline control group (Saline), n=6; 3) bleomycin model group (BLM), n=6; and 4) model treatment group: administration of 150 μg/kg series compounds to mice, 10 groups in total, n=6/group. On the 7th day after the operation of bleomycin induced pulmonary fibrosis in mice, mice in the model treatment group are treated with drugs (administration frequency: daily administration/150 μg/kg, intraperitoneal injection). Samples are taken 14 days after administration, and pathological observations are recorded.
(§2) The bleomycin (purchased from TCI Shanghai)) induced pulmonary fibrosis model manifests the following pathological features: bronchiectasis, hydropic degeneration of bronchial epithelial cells, obvious edema and widening of alveolar interstitium, and deposition of a large number of fibroblasts and collagen tissue. The alveolar structure almost completely disappears, filled with fibrous connective tissue, and accompanied by inflammatory cell infiltration. After 14 days of administration, the mice in the model treatment group are treated and sampled. Blood is taken from the retrobulbar vein for detection of serological indicators, and […] is taken for pathological analysis.
(§3) H&E staining: paraffin embedded tissue sections are taken and baked at 60° C. for 1 h. Dewaxing and hydration: xylene for 20 minutes→xylene for 20 minutes→absolute alcohol for 15 minutes→absolute alcohol for 15 minutes→95% alcohol for 10 minutes→90% alcohol for 5 minutes→80% alcohol for 5 minutes. Staining: hematoxylin for 7 minutes→rinsing with tap water→differentiation with 1% hydrochloric acid alcohol for 1 s→rinsing with tap water→eosin staining for 15 s-20 s→rinsing with tap water. Dehydration and transparency: 75% alcohol for 1 s→85% alcohol for 1 s→95% alcohol for 1 s→100% alcohol for 1 s→xylene for 1 s→xylene for 1 s. The sections are aired for 30 minutes and sealed with gum.
Masson staining: drying and dewaxing; mordanting; adding celestine blue staining solution for 2-3 min, and washing with water; adding Mayer hematoxylin staining solution and washing with water; differentiating with acid alcohol differentiation liquid for several seconds, and washing with tap water; adding ponceau magenta staining solution and washing with distilled water; treating with phosphomolybdic acid solution; adding aniline blue staining solution for 5 min; treating with weak acid solution for 2 min; dehydration and transparency, airing and sealing with gum.
Immunohistochemistry: drying sections, dewaxing, and then soaking in double distilled water for 5 minutes. […]

MMP9 = assay: ELISA of MMP9 in serum of mice of the bleomycin model; assay type: in vivo, C57BL/6J mice; details: BLM mice, 150 μg/kg daily intraperitoneal, 14 days, FIG. 6-A
Method: as §1, §2
(§4) The occurrence and development of fibrotic diseases are related to TGF-β and MMP-9 induced EMT process. Matrix metalloproteinases (MMPs) are matrix degrading proteases that degrade all components of extracellular matrix. They participate in the pathophysiological process of pulmonary fibrosis, play an important role in the abnormal remodeling of extracellular matrix and destruction of basement membrane, and promote the recruitment of inflammatory cells and fibroblasts. The increased expression of MMP-9 in pulmonary fibrosis animal models and patients, higher than the normal MMP-9 level, may destroy normal tissue structure and increase the migration of inflammatory cells to the disease site. In order to further explore the inhibitory mechanism of polypeptide drugs on bleomycin induced pulmonary fibrosis, we detect the expression of TGFβ, MMP9 cell factors in serum of mice in each group by ELISA. […] We speculate that its mechanism should be related to TGF-β.

TGF-β = assay: ELISA of TGFβ in serum of mice of the bleomycin model; assay type: in vivo, C57BL/6J mice; details: BLM mice, 150 μg/kg daily intraperitoneal, 14 days, FIG. 6-B
Method: as §1, §2, §4

[2] = test system: CCl4 induced hepatic fibrosis; assay: Carbon tetrachloride (CCl4) induced hepatic fibrosis model in mice; assay type: in vivo, C57BL/6J mice; details: 100.0 μg/kg intraperitoneal, 3 weeks of administration; for aggregation of inflammatory cells in the liver (HE staining) / hepatic fibrosis of mice: FIG. 2; for expression of Collagen I in the liver (immunohistochemistry): FIG. 3; for collagen deposition in the liver (Sirius red staining): FIG. 4
Method: Molding method: 72 male C57BL/6J mice, male, 18-22 g in weight and 8 weeks old, provided by Laboratory Animal Center, Sun Yat-sen University, randomly divided into 12 groups: 1) control group (Oil)+saline, intraperitoneal injection, n=6; 2) model control group (CCl4)+saline, intraperitoneal injection, n=6; administration of CCl4 to mice once every three days for 6 weeks; 3) model administration group (CCl4)+100.0 μg/kg series of compounds (group 10), intraperitoneal injection, n=6/group. The mice in the control group are injected with corn oil at the same volume and frequency according to the administration volume of 20% CCl4 at the weight of 5.0 μL/g. Administration frequency: administration of CCl4 to mice once every three days for 6 weeks. After 3 weeks of administration of CCl4 to mice in the model administration group, peptide compounds 1, 5, 7, 11, 12, 13, 17, 18, 21 and 22 are administered for 3 weeks from the 4th week. CCl4 and Oil are purchased from Shanghai Aladdin Biochemical Technology Co., Ltd.
In the CCl4 induced hepatic fibrosis model, the manifestations are: inflammatory cell infiltration around the central vein area, hydropic degeneration of hepatic cells, and increased accumulation of collagen fibers in the portal area and the hepatic interlobular septum. After three weeks of administration, the mice are treated and sampled. Blood is taken from the retrobulbar vein for detection of serological indicators, and liver tissue is taken for pathological analysis.
as §3, with “Hematoxylin-eosin (H&E) staining: paraffin” for “H&E staining: paraffin”, “s→xylene for Is→xylene for 1” for “s→xylene for 1 s→xylene for 1”
Sirius red staining: drying and dewaxing; standing for 5.0 minutes in double distilled water; Sirius red staining for 60-80 minutes in a dark room; washing for 5 s with 0.5% glacial acetic acid; dehydration and transparency, sealing and taking photos.
Immunohistochemistry: drying sections, dewaxing, and then soaking in double distilled water for 5 minutes. Antigen retrieval: putting the shelf where pathological sections are placed into a beaker containing citric acid buffer (PH=6.0), and keeping it under high temperature and pressure for 15 minutes; taking out the beaker and letting it stand at room temperature until the temperature drops to the room temperature, then taking out the sections and putting them into 3.0% hydrogen peroxide for 10 minutes to block the endogenous peroxidase activity, and then washing them with PBS for three times, 5 minutes each time; sealing the tissues with 1.0% BSA for 1 h; removing 1.0% BSA, adding Collagen I antibody on the tissue according to the proportion recommended in the Description, and staying overnight at 4° C.; taking out the pathological sections next day, adding the second antibody with horseradish peroxidase after the room temperature is restored, incubating it at 37° C. for 60 minutes, and then use DAB (diaminobenzidine) ([…], USA) to develop color; and re-staining with hematoxylin staining solution, washing with tap water for 5 minutes, differentiating with 1% hydrochloric acid alcohol, then washing with tap water for 5 minutes again, dehydrating, airing, sealing, and taking photos (H&E staining solution and Sirius red staining solution are purchased from Sangon Biotech (Shanghai) Co., Ltd., and Collagen I antibody is purchased from CST Corporation).

Substance: (PEG2-PEG2-γGlu-CO(CH2)18CO2H)-Val-Iva-Gly-Ser-Pro-Ser-Ala-Gln-Glu-Glu-Ala-Ser-Pro-Ala-NH2 ({C20 diacid-γGlu-PEG2′-PEG2′}-V[Iva]GSPSAQEEASPA-NH2) [Compound 7]
- inhibiting and improving the activity of α-SMA (expression of α-SMA protein) (LX2 cells): better effects on inhibiting and improving the activity of α-SMA
- degree of pulmonary fibrosis (H&E staining and Masson staining) [1]: significantly reduced
- fibronectin in pulmonary parenchyma (α-SMA and Collagen1 immunohistochemistry) [1]: significantly less than that in bleomycin group
- concentration of MMP9 in serum of mice (MMP9): significantly reduce
- concentration of TGF-β in serum of mice (TGF-β): significantly reduce
- aggregation of inflammatory cells in the liver (HE staining) [2]: significantly improved
- hepatic fibrosis of mice [2]: significantly improved
- expression of Collagen I in the liver (immunohistochemistry) [2]: significant therapeutic improvement
- collagen deposition in the liver (Sirius red staining) [2]: significant therapeutic improvement

Substance: (PEG2-PEG2-γGlu-CO(CH2)18CO2H)-Val-Val-Gly-Ser-Pro-Ser-Ala-Gln-Asp-Glu-Ala-Ser-Pro-Leu-NH2 ({C20 diacid-γGlu-PEG2′-PEG2′}-VVGSPSAQDEASPL-NH2) [Compound 1]
- inhibiting and improving the activity of α-SMA (expression of α-SMA protein) (LX2 cells): better effects on inhibiting and improving the activity of α-SMA
- degree of pulmonary fibrosis (H&E staining and Masson staining) [1]: significantly reduced
- fibronectin in pulmonary parenchyma (α-SMA and Collagen1 immunohistochemistry) [1]: significantly less than that in bleomycin group
- concentration of MMP9 in serum of mice (MMP9): significantly reduce
- concentration of TGF-β in serum of mice (TGF-β): significantly reduce
- aggregation of inflammatory cells in the liver (HE staining) [2]: significantly improved
- hepatic fibrosis of mice [2]: significantly improved
- expression of Collagen I in the liver (immunohistochemistry) [2]: significant therapeutic improvement
- collagen deposition in the liver (Sirius red staining) [2]: significant therapeutic improvement

Substance: (PEG2-PEG2-γGlu-CO(CH2)18CH3)-Val-Iva-Gly-Ser-Pro-Ser-Ala-Gln-Glu-Glu-Ala-Ser-Pro-Ala-NH2 (V[Iva]GSPSAQEEASPA-NH2; not fully specified (N-terminus); printed as (PEG2-PEG2-γGlu-CO(CH2)18CH3)-Val-Iva-Gly-Ser-Pro-Ser-Ala-Gln-Glu-Glu-Ala-Ser-Pro-Ala-NH2) [Compound 13]
- inhibiting and improving the activity of α-SMA (expression of α-SMA protein) (LX2 cells): better effects on inhibiting and improving the activity of α-SMA
- degree of pulmonary fibrosis (H&E staining and Masson staining) [1]: significantly reduced
- fibronectin in pulmonary parenchyma (α-SMA and Collagen1 immunohistochemistry) [1]: significantly less than that in bleomycin group
- concentration of MMP9 in serum of mice (MMP9): significantly reduce
- concentration of TGF-β in serum of mice (TGF-β): significantly reduce
- aggregation of inflammatory cells in the liver (HE staining) [2]: significantly improved
- hepatic fibrosis of mice [2]: significantly improved
- expression of Collagen I in the liver (immunohistochemistry) [2]: significant therapeutic improvement
- collagen deposition in the liver (Sirius red staining) [2]: significant therapeutic improvement

Substance: (PEG2-PEG2-γGlu-CO(CH2)18CO2H)-Val-Iva-Gly-Ser-Pro-Ser-Ala-Gln-Asp-Glu-Ala-Ser-Pro-Ala-NH2 ({C20 diacid-γGlu-PEG2′-PEG2′}-V[Iva]GSPSAQDEASPA-NH2) [Compound 5]
- inhibiting and improving the activity of α-SMA (expression of α-SMA protein) (LX2 cells): better effects on inhibiting and improving the activity of α-SMA
- degree of pulmonary fibrosis (H&E staining and Masson staining) [1]: significantly reduced
- fibronectin in pulmonary parenchyma (α-SMA and Collagen1 immunohistochemistry) [1]: significantly less than that in bleomycin group
- concentration of MMP9 in serum of mice (MMP9): significantly reduce
- concentration of TGF-β in serum of mice (TGF-β): significantly reduce
- aggregation of inflammatory cells in the liver (HE staining) [2]: significantly improved
- hepatic fibrosis of mice [2]: significantly improved
- expression of Collagen I in the liver (immunohistochemistry) [2]: significant therapeutic improvement
- collagen deposition in the liver (Sirius red staining) [2]: significant therapeutic improvement

Substance: Compound 18: cyclic peptide compound, head-to-tail amide (VVGSPSAQDEASPA; head-to-tail cyclisation; Compound 18)
- inhibiting and improving the activity of α-SMA (expression of α-SMA protein) (LX2 cells): better effects on inhibiting and improving the activity of α-SMA
- degree of pulmonary fibrosis (H&E staining and Masson staining) [1]: significantly reduced
- fibronectin in pulmonary parenchyma (α-SMA and Collagen1 immunohistochemistry) [1]: significantly less than that in bleomycin group
- concentration of MMP9 in serum of mice (MMP9): significantly reduce
- concentration of TGF-β in serum of mice (TGF-β): significantly reduce
- aggregation of inflammatory cells in the liver (HE staining) [2]: significantly improved
- hepatic fibrosis of mice [2]: significantly improved
- expression of Collagen I in the liver (immunohistochemistry) [2]: significant therapeutic improvement
- collagen deposition in the liver (Sirius red staining) [2]: significant therapeutic improvement
